This note sets out measurements from PubChem BioAssay AID2305 (GlaxoSmithKline (GSK), 2010).

The assay concerns P. falciparum 3D7 growth, pLDH absorbance. The experiment in a line: blood-stage malaria parasite growth potency – strain 3D7, dose response (AID 2305).
Consider `CS(=O)(=O)CCNCc1nc(-c2ccc3c(Nc4ccc(Cl)cc4F)ccnc3c2)cs1`, for which the IC50 worked out at 1080 nM.
In turn, `Clc1ccc(CNC2CCN(CC3CCCCC3)CC2)cc1` displayed an IC50 of 1110 nM.
The value for `Cc1cccc(C(=O)N2CCN(Cc3cccc(NC(=O)c4ccco4)c3)CC2)c1` was 760 nM.
On to `O=C(Nc1ccc(CCNC2=NCCN2)cc1)Nc1ccc(CCNC2=NCCN2)cc1`, for which the IC50 stood at 790 nM.
The value for `CC(C)(C)c1ccc(-c2nnc(N)nc2N)cc1` was 860 nM; that for `CC(Cc1ccc(OCCCCOc2ccccc2)cc1)NCCC1CCCN1C` (configuration not stated) was 40 nM.
Then `COC(=O)c1cccc(CNCc2cccc(-c3csc(-c4nc5ccccc5[nH]4)c3)c2)c1`, with 690 nM; and `CCCC(=O)Nc1ccc(Cl)c(NC(=O)COc2cc(C)ccc2C(C)C)c1`, with 930 nM.
As to `COc1cccc2cc(C(=O)N[C@@H](CC(C)C)C(=O)Nc3cc(F)ccc3Br)oc12`, the IC50 amounted to 970 nM.
The value for `CC(C)(C)c1ccc(OCC(=O)NC2CCN(c3ccnc4cc(Cl)ccc34)C2)cc1` (configuration not stated) was 130 nM; that for `COc1cccc(NC(=O)Nc2ccc(Nc3nc(C)cc(N(C)C)n3)cc2)c1` was 170 nM.
`CCCN1CCC(NCc2cn(C)nc2-c2ccc(Oc3ccccc3)cc2)CC1`: the IC50 was found to be 1440 nM.
The value for `COc1cc2nc(N3CCC(CNC(=O)c4ccc(-c5ccc(C(F)(F)F)cc5)cc4)CC3)nc(N)c2cc1OC` was 130 nM; that for `COc1ccc2nc3cc(Cl)ccc3c(NCCCCCCNc3c4ccc(Cl)cc4nc4ccc(OC)cc34)c2c1` was 660 nM; that for `CC(C)CNCc1cccc(-c2ccc(CN(CCCN3CCN(C)CC3)C(=O)CCC3CCCC3)cc2)c1` was 880 nM.
Then `COCCN1CCC(N(Cc2ccc(-c3ccc(OC(F)(F)F)cc3)cc2)C(=O)Cn2c(CCc3cccc(F)c3F)cc(=O)c3ccccc32)CC1`, with 1210 nM.
`CSc1ccc(CN2CCC(NC(=O)c3ccc(-c4ccc(N(C)C)cc4)s3)CC2)cc1`: the IC50 came out at 1500 nM.
Then `CO/C(=C\C=C\c1cc2cc(Cl)c(Cl)cc2[nH]1)C(=O)NCCCNC12CC3CC(CC(C3)C1)C2`, with 730 nM; and `Cc1cc(N[C@@H](CC(C)C)C(=O)NCCc2ccccc2)nc(NCCc2cccs2)n1`, with 1200 nM.
Molecule `Cn1cnc(CCNC(=O)c2ccc(-c3ccc(-c4nc5ccc(F)cc5[nH]4)cc3)cc2)c1` registered an IC50 of 870 nM.
Then `COc1ccc(NC(=O)/C=C/c2ccccc2Cl)cc1OCCN1CCC(N2CCCCC2)CC1`, with 900 nM; and `CN1CCN(CCCN(Cc2csc(-c3ccc(CNCc4ccccc4)cc3)n2)C(=O)c2cc(F)cc(F)c2)CC1`, with 710 nM.
Then `COc1ccccc1N1CCN(CCCCN(C(=O)Nc2cccc(Cl)c2)C(=O)Nc2cccc(Cl)c2)CC1`, with 710 nM.
In turn, `Cc1nc(C)c(CC(=O)Nc2cccc(-c3cccc(-c4nc5c(C)cccc5[nH]4)c3)c2)s1` displayed an IC50 of 750 nM.
The value for `C[C@@H]1CN(c2cccc3c2nc(-c2cncc(C#N)c2)n3CCNCc2ccccc2)C[C@H](C)O1` was 1220 nM; that for `O=C(Nc1cn(-c2ccc(OCc3cccc(F)c3)c(Cl)c2)c2ncncc12)c1ccncc1` was 170 nM.
Then `O=C(NCc1ccc(F)cc1)c1cc(Br)cc(N2CCN(c3ccncc3)CC2)c1`, with 1230 nM; and `CC(C)c1ccc(CN2CCCCC(NC(=O)c3cc(-c4ccccc4F)cs3)C2)cc1` (configuration not stated), with 670 nM; and `CCOc1ccc(CCC(=O)O)cc1OCC`, with 1030 nM.
Molecule `CCOC(=O)c1cccc(N/C(N)=N/c2nc(C)cc(NCCc3ccccc3)n2)c1` showed an IC50 of 680 nM.
The value for `Cc1cc(N2CCCC2)nc(Nc2ccc(NC(=O)C3CCCC3)cc2)n1` was 1110 nM; that for `COc1ccccc1CCNc1nc(C)cc(NCCC(=O)NCCOc2ccccc2)n1` was 1370 nM.
Regarding `CC(C)(C)n1nnnc1C(c1cccnc1)N(Cc1ccccc1)Cc1ccc(Cl)cc1` (configuration not stated), the IC50 was 740 nM.
`CC(C#N)Cc1ccc(-c2cnc(N)c3cc(-c4ccnc(N)n4)ccc23)cc1` (configuration not stated) yielded an IC50 of 990 nM.
Then `O=C(/C=C/c1ccc(Cl)c(Cl)c1)NCCCCCN1CCC(NC(=S)Nc2ccc(F)cc2F)CC1`, with 810 nM; and `CCCCCCCC1CCN(C[C@H](O)c2ccnc3ccc(OC)cc23)CC1`, with 960 nM.
Then `CN1CCN(c2ccc(Nc3c(C(N)=O)cnc4cc(-c5ccoc5)ccc34)cc2C(F)(F)F)CC1`, with 780 nM; and `CN1CCC(N(Cc2ccc(N3CCN(Cc4c[nH]c5ccc(Cl)cc45)CC3)nc2)C2CC2)CC1`, with 1000 nM; and `O=C(/C=C/c1ccc(Cl)cc1)NCCCCCN1CCCN(C(=O)Nc2ccc(F)c(Cl)c2)CC1`, with 780 nM.
Turning to `CC1(C)N=C(N)N=C(N)C1c1ccc(Cl)cc1` (configuration not stated), the IC50 came out at 260 nM.
Then `NC(=O)c1ccc(-n2cnc3cc(F)ccc32)cc1OCc1ccccc1C(F)(F)F` (tested in a mixture with another compound), with 360 nM; and `CC(C)NC(=O)c1cccc(-c2ccc(OCCN3CCCC3c3cc4ccccc4[nH]3)cc2)c1` (configuration not stated), with 960 nM; and `Nc1nc(Nc2ccc(Cl)cc2)nc2ccccc12`, with 730 nM.
The value for `CCCCCCCN1CC[C@@H](CCCc2ccnc3ccc(OC)cc23)[C@@H](CCN)C1` was 750 nM; that for `COC(=O)c1cccc(CN(CCC(O)(C(F)(F)F)C(F)(F)F)C(=O)CC2CCCC2)c1` was 910 nM.
Then `Cc1cc(NC(=O)Nc2ccc3ncccc3c2)c2ccccc2n1`, with 960 nM.
For `N=C(N)c1cccc(OCCCOc2cccc(NC(=O)Nc3ccc([N+](=O)[O-])cc3)c2)c1`, the IC50 is 860 nM.
The value for `CN(C)c1ccc(CN2CCC(CNC(=O)c3cc(-c4cccc(C(F)(F)F)c4)cs3)C2)cc1` (configuration not stated) was 880 nM; that for `Cc1cc(C)c(S(=O)(=O)N2CCCCC(c3cccc(C(F)(F)F)c3)=N2)c(C)c1` was 460 nM.
On to `CN1CCCC1CCCOC(=O)c1ccc(N)cc1` (configuration not stated), for which the IC50 turned out to be 920 nM.
The value for `c1ccc(-c2nc(Nc3nc4ccccc4[nH]3)[nH]c2-c2ccccc2)cc1` was 620 nM.
Molecule `Cc1cc2cc(NC(=O)Nc3ccnc4ccccc34)ccc2n1C` yielded an IC50 of 1090 nM.
The value for `CC1CN(CC(O)Cn2c3ccc(Br)cc3c3cc(Br)ccc32)CC(C)O1` (configuration not stated) was 780 nM; that for `CCOc1ccc2nc(C)cc(NN=Cc3cccc([N+](=O)[O-])c3)c2c1` was 660 nM.
Consider `Cc1cc(N[C@@H](CC(C)C)C(=O)NCCc2ccccc2)nc(Nc2ccccc2)n1`, for which the IC50 was found to be 820 nM.
`CS(=O)(=O)c1ccc(CNCc2cccc(-c3cccc(-c4nc5ccccc5[nH]4)c3)c2)cc1` yielded a half-maximal inhibitory concentration (IC50) of 590 nM.
In the case of `COc1ccc(C(=O)Nc2ccc(Cl)cc2C(=O)Nc2ccncc2)cc1`, the IC50 turned out to be 820 nM.
For the molecule `Cc1cc(N[C@@H](Cc2ccccc2)C(=O)NCc2cccc(F)c2)nc(NCCc2ccc(F)cc2)n1`, the IC50 was 650 nM.
The value for `CC1CN(Cc2ccc(-c3ccc(-c4nc5ccc(F)cc5[nH]4)cc3)cc2)CC(C)O1` (configuration not stated) was 560 nM; that for `O=C(Cc1ccc(NC(=O)c2ccc(O)c(-c3ccc(Cl)c(Cl)c3)c2)cc1)NCCc1ccc(Cl)c(Cl)c1` was 720 nM; that for `Cc1cccc2[nH]c(-c3cccc(-c4ccc(NC(=O)COc5ccccc5C(N)=O)cc4)c3)nc12` was 890 nM.
Then `NC(=O)COc1c(C2CCN(CCCCNC(=O)c3ccc(-c4ccc(Cl)cc4)c(O)c3)CC2)ccc2c1CCCC2`, with 710 nM.
The value for `CCCCCN1CCC(NS(=O)(=O)c2cccc(C(=O)Nc3ccc(Cl)cc3)c2)CC1` was 920 nM; that for `CCOc1cc(C(=O)NCc2cc(Cl)cc(Cl)c2)ccc1-c1nc2ccc(Cl)cc2[nH]1` was 730 nM.
`O=C(Nc1ccc2ccccc2c1)N1CCC(NCc2cccc([N+](=O)[O-])c2)CC1` displayed an IC50 of 860 nM.
Then `C=C(C)CSc1nc2c(c(=O)n1Cc1ccco1)C1(CCCCC1)Cc1ccccc1-2`, with 1000 nM.
Then `COc1ccc(-c2ccc(NC(=O)c3cccc(F)c3)cc2)cc1CN1CCCN(C)CC1`, with 670 nM.
Then `CC(Oc1ccc(Cl)cc1)C(=O)N(C)C1CCN(CCCCCNC(=O)/C=C/c2ccc(Cl)c(Cl)c2)CC1` (configuration not stated), with 960 nM; and `CCN(CC)S(=O)(=O)c1cc(-c2ccc(=O)n(CC(=O)c3ccc(C)cc3)n2)ccc1C`, with 890 nM.
In turn, `COc1ccc(CNc2nccc3ccc(-c4ccc5nccn5c4)cc23)cc1` yielded an IC50 of 880 nM.
The molecule `CCN(CC)CCNc1ccnc2[nH]c3ccc(I)cc3c12` returned an IC50 of 230 nM.
`Cc1cc(NC(=O)c2ccco2)ccc1OC1CCN(Cc2ccc(F)cc2)CC1` returned an IC50 of 590 nM.
The value for `CCNc1cc(C(=O)N[C@@H](Cc2ccccc2)[C@H](O)CNC(C)(C)CCCC(C)C)c(F)c(N2CCCS2(=O)=O)c1` was 200 nM; that for `Cc1cc(N2CCCC2)nc(Nc2ccc(NC(=O)c3ccc4c(c3)OCO4)cc2)n1` was 810 nM; that for `O=C(CC1SC(N2N=C(c3cccs3)CC2c2ccccc2)=NC1=O)Nc1ccccc1F` (configuration not stated) was 1090 nM.
As to `Cc1cccc(CNc2nc(C)cc(N[C@@H](CC(C)C)C(=O)NCCOc3ccccc3)n2)c1`, the IC50 is 1080 nM.
As for `COc1ccc2[nH]cc(C3=CCN(C[C@H]4C[C@@H]4C(=O)c4ccccc4)CC3)c2n1`, the IC50 turned out to be 270 nM.
The value for `CC1(C)N=C(N)N=C(N)N1c1cccc(Cl)c1` was 40 nM; that for `Fc1ccc2[nH]c3c(NCCN4CCCCC4)ncnc3c2c1` was 830 nM.
`CCCNCc1ccc(-c2ccc(CN(CCOC)C(=O)c3ccco3)cc2)nc1` showed an IC50 of 1000 nM.
Then `O=C(Nc1cccc(-c2nc3ccccc3s2)c1)c1ccccc1[N+](=O)[O-]`, with 770 nM; and `Cc1cc(N2CCCC2)nc(Nc2ccc(NC(=O)c3ccco3)cc2)n1`, with 840 nM; and `COc1ccc(CNCc2ccc(-c3cccc(-c4nc5ccc(C(F)(F)F)cc5[nH]4)c3)cc2)cc1`, with 150 nM.
Then `COc1ccc(CCN2CCC(Nc3nc4ccccc4n3CCc3ccc(OC)cc3)CC2)cc1`, with 660 nM.
The value for `Cc1cc(NC(=O)Nc2ccc3nccc(N4CCN(C)CC4)c3c2)ccc1Br` was 90 nM; that for `CC[C@@]1(O)C(=O)OCc2c1cc1n(c2=O)Cc2c-1nc1cc3c(cc1c2CN1CCN(C)CC1)OCCO3` was 450 nM; that for `N#Cc1ccccc1C1CCN(C2CCC(Nc3cc(-c4cccnc4)ccn3)CC2)CC1` (configuration not stated) was 960 nM.

For orientation: IC50 means the concentration that inhibits the measured activity by half. A higher IC50 goes with a need for much substance.
